Measurements from ChEMBL document CHEMBL5537178, “Discovery of TP0628103: A Highly Potent and Selective MMP-7 Inhibitor with Reduced OATP-Mediated Clearance Designed by Shifting Isoelectric Points” (J Med Chem, 2024).
Starred links: 1 amine or outer side, 2 acyl side, 3 side chain; linkers in the order of their positions; H or OH if unused. Non-standard residues stand in square brackets, D forms with d. Residues, ends and D or L forms follow the SMILES beside them. *: point of attachment. Benzenesulfonyl(4-Cl,3-CF3) = O=S(=O)(c1ccc(Cl)c(C(F)(F)F)c1)*; γGlu = O=C(O)[C@H](CCC(=O)[*:2])N[*:1]; 4Pal = N[C@@H](Cc1ccncc1)C(=O)O; Tle = CC(C)(C)[C@H](N)C(=O)O; β3hP = O=C(O)C[C@@H]1CCCN1

Tests used:
[1] = Lipophilicity, logD of compound at pH 7.4; type: physicochemical; settings: buffer
[2] = Chemical stability of the compound in pH 4 aqueous solution assessed as degradation by measuring residual rate incubated for 24 hrs at 65 degC by HPLC analysis; type: physicochemical; settings: read-out: Activity
[3] = Chemical stability of the compound in pH 7.4 aqueous solution assessed as degradation by measuring residual rate incubated for 24 hrs at 65 degC by HPLC analysis; type: physicochemical; settings: read-out: Activity
[4] = Volume of distribution at steady state in cynomolgus monkey at 0.25 mg/kg, iv pretreated with rifampicin 20 mg/kg, po 1 hr before; type: ADME, organism-based, Macaca fascicularis; settings: in vivo, read-out: Vdss
[5] = Total clearance in cynomolgus monkey at 0.25 mg/kg, iv pretreated with rifampicin 20 mg/kg, po 1 hr before; type: ADME, organism-based, Macaca fascicularis; settings: in vivo
[6] = Total clearance in cynomolgus monkey at 0.25 mg/kg, iv; type: ADME, organism-based, Macaca fascicularis; settings: in vivo
[7] = Stability of the compound in rat liver S9 fraction; type: ADME, subcellular
[8] = Volume of distribution at steady state in cynomolgus monkey at 0.25 mg/kg, iv; type: ADME, organism-based, Macaca fascicularis; settings: in vivo, read-out: Vdss
[9] = Urinary excretion rate in rat at 1 mg/kg, iv; type: ADME, organism-based; settings: urine, read-out: Activity
[10] = Total clearance in CL57BL/6J mouse at 0.25 mg/kg, iv measured upto 24 hrs by LCMS/MS analysis; type: ADME, organism-based; settings: in vivo
[11] = Volume of distribution at steady state in CL57BL/6J mouse at 0.25 mg/kg, iv measured upto 24 hrs by LCMS/MS analysis; type: ADME, organism-based; settings: in vivo, read-out: Vdss

SMILES | remaining at 24 h [2] [%] | remaining at 24 h [3] [%] | further results
COc1ccccc1Oc1c(NS(=O)(=O)c2ccc(C(C)(C)C)cc2)nc(-c2ncccn2)nc1OCCO [BOSENTAN] | – | – | logD [1]: 2.4
CC(C)(C)[C@H](NC(=O)[C@H](Cc1ccncc1)NC(=O)CNC(=O)CC[C@H](NS(=O)(=O)c1ccc(Cl)c(C(F)(F)F)c1)C(=O)O)C(=O)Nc1ccc(C(=O)N2CCC(C(=O)N[C@H](CCCNC(=N)N)C(=O)NCCN)CC2)cc1 | 98.8 | 88.7 | –
CC(C)(C)[C@H](NC(=O)[C@H](Cc1ccncc1)NC(=O)CNC(=O)CC[C@H](NS(=O)(=O)c1ccc(Cl)c(C(F)(F)F)c1)C(=O)O)C(=O)Nc1ccc(C(=O)N2CCC(C(=O)N[C@H](CCCCN)C(=O)N3C[C@@H](N)C[C@H]3C(N)=O)CC2)cc1 | 97 | 96.2 | –
CN(C)CCCC[C@H](NC(=O)CCN)C(=O)N1CCN(C(=O)c2ccc(NC(=O)[C@@H](NC(=O)[C@H](Cc3ccncc3)NC(=O)CNC(=O)CC[C@H](NS(=O)(=O)c3ccc(Cl)c(C(F)(F)F)c3)C(=O)O)C(C)(C)C)cc2)CC1 | 100 | 93.7 | –
CC(C)(C)[C@H](NC(=O)[C@H](Cc1ccncc1)NC(=O)CNC(=O)CC[C@H](NS(=O)(=O)c1ccc(Cl)c(C(F)(F)F)c1)C(=O)O)C(=O)Nc1ccc(C(=O)N2CCC(C(=O)N[C@H](CCCCN)C(=O)NCCN)CC2)cc1 | 99.6 | 90.5 | –
CC(C)(C)[C@H](NC(=O)[C@H](Cc1ccncc1)NC(=O)CNC(=O)CC[C@H](NS(=O)(=O)c1ccc(Cl)c(C(F)(F)F)c1)C(=O)O)C(=O)Nc1ccc(C(=O)NCC2(N)CCNCC2)cc1 | 95.6 | 86.4 | –
CC(C)(C)[C@H](NC(=O)[C@H](Cc1ccncc1)NC(=O)CNC(=O)CC[C@H](NS(=O)(=O)c1ccc(Cl)c(C(F)(F)F)c1)C(=O)O)C(=O)N1CCC[C@H]1CC(N)=O ({Benzenesulfonyl(4-Cl,3-CF3)-γGlu}-G[4Pal][Tle][β3hP]-NH2) | – | – | Vd [4]: 0.208 L/kg; clearance [5]: 9.12 mL/min/kg; clearance [6]: 24.5 mL/min/kg; Stability [7]: < 10%; Vd [8]: 0.283 L/kg; dose excreted [9]: 5%
CC(C)c1nc(N(C)S(C)(=O)=O)nc(-c2ccc(F)cc2)c1/C=C/[C@@H](O)C[C@@H](O)CC(=O)O [ROSUVASTATIN] | – | – | logD [1]: -1.9
CC(C)(C)[C@H](NC(=O)[C@H](Cc1ccncc1)NC(=O)CNC(=O)CC[C@H](NS(=O)(=O)c1ccc(Cl)c(C(F)(F)F)c1)C(=O)O)C(=O)Nc1ccc(C(=O)N2CCN(C(=O)[C@@H](N)CCCN)CC2)cc1 | 88.6 | 58.7 | clearance [10]: 41.3 mL/min/kg; Vd [11]: 0.185 L/kg
CC(C)(C)[C@H](NC(=O)[C@H](Cc1ccncc1)NC(=O)CNC(=O)CC[C@H](NS(=O)(=O)c1ccc(Cl)c(C(F)(F)F)c1)C(=O)O)C(=O)Nc1ccc(C(=O)O)cc1 | – | – | clearance [10]: 200 mL/min/kg; Vd [11]: 2.48 L/kg
